As usually defined, the mass density is mass per unit of volume.

The record followed here is the NIST ThermoML archive (doi:10.1016/j.jct.2011.10.009).

The structures appear in SMILES notation. Numbers after ± are expanded uncertainties.

The conditions of the data set: 101.33 kPa, Liquid, Vibrating tube method.

For `CCO` [ethanol], the mass density (278.15 K) was found to be 802.08 ± 0.11 kg/m3; the mass density (288.15 K) came out at 793.6 ± 0.12 kg/m3; the mass density (298.15 K) is reported as 785.03 ± 0.12 kg/m3; the mass density (308.15 K) was determined as 776.35 ± 0.12 kg/m3; the mass density (318.15 K) is recorded as 767.54 ± 0.13 kg/m3.

`[2H]C(C)O` (stereo not given) [ethanol-1-d]: the mass density came to 818.95 ± 0.14 kg/m3 (278.15 K); 810.32 ± 0.14 kg/m3 (288.15 K); 801.57 ± 0.14 kg/m3 (298.15 K); 792.68 ± 0.15 kg/m3 (308.15 K); 783.63 ± 0.15 kg/m3 (318.15 K).
